Measurements from paper PMC8536644, “Enigmatic mechanism of the N-vinylpyrrolidone hepatocarcinogenicity in the rat” (Archives of Toxicology, 2021).
Several values for one entry are separate records, joined by “and”; a condition that tells them apart may be missing. Equal values may be shown once.

Legend:
rat lung cells = assay: Comet assay in presence of FPG, lung; conditions: with FPG, 5 days; for TI (%), mean of medians from 2 slides: individual animals
Description: Animals were anesthetized by 3.5% isoflurane (approximately 3 min, evaporator Dräger Vapor 19.3) and then killed by cervical dislocation. The liver was removed and its left lateral lobe used for the Comet assay. The remainder of the liver was washed in saline and then in two aliquots shock frozen in liquid nitrogen and stored at − 80 °C for later examinations. Subsequently the lung was removed from the dead animal. Its left lobe was used for the Comet assay and the remainder treated as described above for the liver. Thereafter the femora were removed for the preparation of the bone marrow.
The Comet assay was performed under alkaline conditions according to the principles described by Singh et al. ([1988]) and Tice et al. ([2000]).
Liver and lung cells were obtained essentially as described by Hartmann et al. ([2004]) and by the Japanese Center for the Validation of Alternative Methods (JaCVAM [2009]). Single cells were obtained within 1 h after killing of the animals in order to minimize DNA damage during the preparation.
The organ parts (see above) were washed in mincing buffer (50 mM EDTA in HBSS [without Ca^2+ and Mg^2+] pH 7.5: DMSO 9:1 (v/v), the latter added shortly before use, stored at 4 °C), cut into 1 to 2-mm pieces in ice-cold mincing buffer and transferred to a cell sieve with 70-µm pores. The viability of the cell suspension was evaluated by the Trypan Blue Assay (Strober [2001]).
100 µL of the obtained cell suspension was mixed at 37 °C with 900 µL Low Melting Agarose (LMA) (0.7% agarose in phosphate-buffered saline [PBS] [Biochrom, Berlin, Germany] without Ca^2+ and Mg^2+). 100 µL of this mixture was transferred to a slide, which had been coated with Normal Melting Agarose (NMA) (0.6% agarose in PBS without Ca^2+ and Mg^2+). The slides were protected with a cover slip and the agarose was hardened at approximately 4 °C. The cover slips were then removed and the slides put over night at 4 °C into lysis buffer (2.5 M NaCl, 125 mM NaOH, 127 mM EDTA, 10 mM Tris/NaOH, pH 10; 1% Triton X-100 and 10% DMSO (v/v), the latter two added before use) in order to lyse the cell membrane, nuclear membrane and remove the histone.
The then following procedures were performed in a shaded room to minimize UV-mediated DNA damage during the procedures.
Those slides which were destined to be treated with the DNA base excision repair enzyme FPG (Sigma Aldrich, Steinheim, Germany) were washed (3 times for 5 min) with FPG buffer (0.04 M HEPES, 0.5 mM EDTA, 0.1 M KCl, pH 8; add shortly before use bovine serum albumin [BSA] to a final concentration of 0.02%). Subsequently 50 µL FPG-enzyme-buffer (prepared shortly prior to use by 30-fold dilution of the following suspension in FPG buffer: 7 µL FPG-enzyme (14 U) and 70 µL glycerol in 623 µL FPG-Puffer, stored at − 80 °C) was pipetted on the slide which was covered with a cover slide and incubated for 30 min at 37 °C while being placed on a humid filter paper. After hardening of the agarose cover slips were removed.
Remaining lysis buffer or FPG buffer was removed by immersing/washing the slides in PBS (without Ca^2+ and Mg^2+).

rat liver = assay: Non-protein-bound sulfhydryl groups (NPSH) in liver homogenate supernatant; format: in vivo; conditions: for NPSH, individual animal / NPSH, group (mean ± SD): rat liver; for NPSH, group (mean ± SD): n = 6
Description: Determination of NPSH was performed according to the principle described by Ellmann (1958, 1959) in the liver homogenate supernatant fraction of the NVP-exposed male Wistar rats. […] The supernatant fraction was stored in aliqots at − 80 °C. Prior to assay, the samples were diluted fourfold and to 100 µL of the diluted sample 200 µL Tris/EDTA (1 M/5 mM, pH 8.9) buffer was added. Determinations were performed in triplicates. […] Measurements were performed 5 min thereafter at λ = 412 nm.

CYP1A = assay: EROD inhibition control in Aroclor 1254-induced rat liver microsomes; format: biochemical; conditions: for EROD enzyme activity: 0 µM control 821.5 ± 54.9
Description: (§1) For determination of the enzyme activities in triplicates, 85 µL master mix (100 mM TrisHCl pH 7.5, 2 mM 5’AMP, 5 mM G-6-P, 10 U G-6-P-DH, 10 mM Dicumarol, 10 mM MgCl2, either 2 µM EROD or 10 µM PROD or 5 µM BROD) was added to 10 µL microsomal fraction (1 mg protein/mL). The reaction was started by the addition of 5 µL 2 mM NADPH (dissolved in 100 mM TrisHCl pH 7.5) followed by incubation at 37 °C for 16 min. The activity was determined by measuring the increase of the fluorescence (excitation at 550 nm, emission at 585 nm) due to resorufin formation compared with resorufin standards, which had been prepared by dissolving tenfold concentrated solutions in DMSO, which were then diluted tenfold in 100 mM TrisHCl pH 7.5.
(§2) As a method control the described AROD assay was performed with microsomal fractions derived from liver and lung of male Wistar rats which had been treated i.p. for 5 days with aroclor 1254 (500 mg/kg bw). These control assays were performed in presence of 1 μM, 10 μM or 100 μM NVP, respectively, in order to check for potential interactions of NVP with the substrate turnover in the AROD assay.

CYP2B = assay: PROD inhibition control in Aroclor 1254-induced rat liver microsomes; format: biochemical; conditions: for PROD enzyme activity: 0 µM control 78.9 ± 3.2
Description: as §1, §2

(liver) DNA = system: (liver) DNA; set-up: method as in Inveresk Research International (IRI) [1986]; conditions: male CD rats, i.p. 14C-NVP 150 and 300 mg/kg; ref Inveresk Research International (IRI) [1986]; cited from earlier work
estrogen receptor α = system: estrogen receptor α; set-up: method as in ToxCast (comptox.epa.gov dashboard); conditions: ref ToxCast (comptox.epa.gov dashboard); cited from earlier work

C=CN1CCCC1=O [NVP, N-vinylpyrrolidone]
Hedgehogs/100 cells (mean ± SD) (rat lung cells; female, 5 ppm inhalation): 3 ± 2 /100 cells
TI (%) (mean ± SD) (rat lung cells; female, 5 ppm inhalation): 7.8 ± 1.30%
TI (%), mean of medians from 2 slides (rat lung cells; female, 5 ppm inhalation): 8.6% and 7.0% and 6.8% and 10.1% and 7.1% and 7.3%
Hedgehogs/100 cells (mean ± SD) (rat lung cells; female, 10 ppm inhalation): 1 ± 1 /100 cells
TI (%) (mean ± SD) (rat lung cells; female, 10 ppm inhalation): 7.2 ± 1.81%
TI (%), mean of medians from 2 slides (rat lung cells; female, 10 ppm inhalation): 8.7% and 8.1% and 7.9% and 8.4% and 6.0% and 4.0%
Hedgehogs/100 cells (mean ± SD) (rat lung cells; female, 20 ppm inhalation): 3 ± 1 /100 cells
TI (%) (mean ± SD) (rat lung cells; female, 20 ppm inhalation): 7.4 ± 2.90%
TI (%), mean of medians from 2 slides (rat lung cells; female, 20 ppm inhalation): 6.2% and 8.6% and 10.2% and 2.3% and 7.7% and 9.7%
Hedgehogs/100 cells (mean ± SD) (rat lung cells; male, 5 ppm inhalation): 2 ± 2 /100 cells
TI (%) (mean ± SD) (rat lung cells; male, 5 ppm inhalation): 6.4 ± 0.69%
TI (%), mean of medians from 2 slides (rat lung cells; male, 5 ppm inhalation): 6.1% and 7.5% and 6.6% and 5.5% and 6.5%
Hedgehogs/100 cells (mean ± SD) (rat lung cells; male, 10 ppm inhalation): 4 ± 4 /100 cells
TI (%) (mean ± SD) (rat lung cells; male, 10 ppm inhalation): 7.9 ± 3.21%
TI (%), mean of medians from 2 slides (rat lung cells; male, 10 ppm inhalation): 12.0% and 3.6% and 6.0% and 7.3% and 7.2% and 11.4%
Hedgehogs/100 cells (mean ± SD) (rat lung cells; male, 20 ppm inhalation): 1 ± 1 /100 cells
TI (%) (mean ± SD) (rat lung cells; male, 20 ppm inhalation): 3.9 ± 0.72%
TI (%), mean of medians from 2 slides (rat lung cells; male, 20 ppm inhalation): 3.8% and 3.5% and 5.2% and 3.6% and 3.3% and 4.2%
GSH concentration (NPSH assay), range (rat liver; NVP-exposed male rats, 5-20 ppm): 3.72–5.23 µmol/g liver
NPSH, individual animal (rat liver; 5 ppm NVP inhalation, animals 7-12): 5,13 µmol/g liver and 4,59 µmol/g liver and 4,10 µmol/g liver and 4,86 µmol/g liver and 3,99 µmol/g liver
NPSH, group (mean ± SD) (rat liver; 5 ppm NVP inhalation): 4.42 ± 0.52 µmol/g liver
NPSH, individual animal (rat liver; 10 ppm NVP inhalation, animals 13-18): 4.11 µmol/g liver and 4.72 µmol/g liver and 4.83 µmol/g liver and 4.57 µmol/g liver and 3.76 µmol/g liver
NPSH, group (mean ± SD) (rat liver; 10 ppm NVP inhalation): 4.23 ± 0.58 µmol/g liver
NPSH, individual animal (rat liver; 20 ppm NVP inhalation, animals 19-24): 4.47 µmol/g liver and 5.23 µmol/g liver and 3.72 µmol/g liver and 3.88 µmol/g liver and 4.67 µmol/g liver and 4.64 µmol/g liver
NPSH, group (mean ± SD) (rat liver; 20 ppm NVP inhalation): 4.44 ± 0.55 µmol/g liver
EROD enzyme activity (CYP1A; 1 µM NVP): 859.9 ± 14.1 pmol/min/mg protein
EROD enzyme activity (CYP1A; 10 µM NVP): 827.9 ± 13.6 pmol/min/mg protein
EROD enzyme activity (CYP1A; 100 µM NVP): 858.9 ± 33.9 pmol/min/mg protein
Inhibition of EROD activity (CYP1A; 1, 10 or 100 µM NVP): does not lead to inhibition
PROD enzyme activity (CYP2B; 1 µM NVP): 88.6 ± 3.3 pmol/min/mg protein
PROD enzyme activity (CYP2B; 10 µM NVP): 92.1 ± 6.0 pmol/min/mg protein
PROD enzyme activity (CYP2B; 100 µM NVP): 94.6 ± 2.3 pmol/min/mg protein
Inhibition of PROD activity (CYP2B; 1, 10 or 100 µM NVP): does not lead to inhibition
Binding of NVP or its metabolites to (liver) DNA ((liver) DNA): no binding
Effect on estrogen receptor α (estrogen receptor α): activates
